This assay deals with ATGL-KO iPSCs. Briefly: High throughput iPSC chemical screening, Oil Red O (ORO) lipid accumulation. As to Z-score: test concentration or dose not given here. Type of assay: cell-based, mouse. The conditions noted are these: for Z-score: normalized ORO level vs DMSO-treated cells, compound present during 7 days differentiation, 96-well, negative = decrease in lipid accumulation; for Rank in normalized ORO score from screen: glycolytic switch compounds.

Where a name gives a salt, the structure may show the parent alone.

In turn, `CN[C@H]1CC[C@@H](c2ccc(Cl)c(Cl)c2)c2ccccc21` [Sertraline hydrochloride] came in with a Z-score of −1.6299.

Molecule `CCC(C)(C)C(=O)O[C@H]1C[C@@H](C)C=C2C=C[C@H](C)[C@H](CC[C@@H]3C[C@@H](O)CC(=O)O3)[C@H]21` [Simvastatin] returned a Z-score of 15.173.

In turn, `CN[C@@H]1[C@@H](O)[C@@H](O[C@@H]2[C@@H](O)[C@H](O[C@H]3OC(CN)=CC[C@H]3N)[C@@H](N)C[C@H]2N)OC[C@]1(C)O` [Sisomicin sulfate] had a Z-score of −0.7041.

With `COc1ccc2c(OC)c3ccoc3nc2c1OC` [Skimmianine], the Z-score is reported as −1.2252.

Molecule `C[C@@H]1CC[C@@]2(NC1)O[C@H]1C[C@H]3[C@@H]4CC=C5C[C@@H](O)CC[C@]5(C)[C@H]4CC[C@]3(C)[C@H]1[C@@H]2C` [Solasodine] showed a Z-score of −0.5386.

The molecule `CC(C)NCC(O)c1ccc(NS(C)(=O)=O)cc1` (centres unmarked) [Sotalol hydrochloride] yielded a Z-score of 0.2363.

For `CC(=O)N[C@@H](CC(=O)N[C@@H](CCC(=O)O)C(=O)O)C(=O)O` [Spaglumic acid], the Z-score stood at 0.9666.

As for `C1CCN2C[C@@H]3C[C@@H](CN4CCCC[C@@H]34)[C@H]2C1` [Sparteine (−)], the Z-score is reported as −0.3524.

Consider `CN[C@@H]1[C@H](O)[C@H](NC)[C@H]2O[C@@]3(O)C(=O)C[C@@H](C)O[C@H]3O[C@@H]2[C@H]1O` [Spectinomycin dihydrochloride], for which the Z-score was −0.1287.

Turning to `O=C(CCCN1CCC2(CC1)C(=O)NCN2c1ccccc1)c1ccc(F)cc1` [Spiperone], the Z-score is given as −1.6819.

For `CC(=O)S[C@@H]1CC2=CC(=O)CC[C@]2(C)[C@H]2CC[C@@]3(C)[C@@H](CC[C@@]34CCC(=O)O4)[C@H]12` [Spironolactone], the Z-score was −1.7632.

In the case of `C[N+]1(C)CCC[C@H]1C(=O)[O-].Cl` [Stachydrine hydrochloride], the Z-score is listed as 0.2248.

On to `[H]/N=C(/N)N[C@H]1[C@H](O)[C@@H](O)[C@H](O[C@@H]2O[C@@H](C)[C@](O)(C=O)[C@H]2O[C@@H]2O[C@@H](CO)[C@H](O)[C@@H](O)[C@@H]2NC)[C@@H](N/C(N)=N\[H])[C@@H]1O` [Streptomycin sulfate], for which the Z-score was 1.417.

`C[C@]12CC[C@H]3[C@@H](CC[C@]4(O)C[C@@H](O)CC[C@]34C=O)[C@@]1(O)CC[C@@H]2C1=CC(=O)OC1` [Strophanthidin] registered a Z-score of 0.6732.

On to `C[C@@H]1O[C@@H](O[C@H]2C[C@@H](O)[C@]3(CO)[C@H]4[C@H](O)C[C@]5(C)[C@@H](C6=CC(=O)OC6)CC[C@]5(O)[C@@H]4CC[C@]3(O)C2)[C@H](O)[C@H](O)[C@H]1O.O.O.O.O.O.O.O.O` [Strophantine octahydrate], for which the Z-score is recorded as 3.188.

`O=C(O)CCC(=O)Nc1ccc(S(=O)(=O)Nc2nccs2)cc1` [Succinylsulfathiazole] yielded a Z-score of 1.139.

As to `Clc1ccc(CSC(Cn2ccnc2)c2ccc(Cl)cc2Cl)cc1` (centres unmarked) [Sulconazole nitrate], the “Rank in normalized ORO score from screen” value was determined as 372 and the Z-score is given as −0.6576.

`Nc1ccc(S(=O)(=O)NC(=O)c2ccccc2)cc1` [Sulfabenzamide]: the Z-score is recorded as 1.96.

On to `CC(=O)[N-]S(=O)(=O)c1ccc(N)cc1.O.[Na+]` [Sulfacetamide sodic hydrate], for which the Z-score is reported as −0.3059.

As to `Nc1ccc(S(=O)(=O)Nc2ccc(Cl)nn2)cc1` [Sulfachloropyridazine], the Z-score is 1.134.

As to `Nc1ccc(S(=O)(=O)Nc2ncccn2)cc1` [Sulfadiazine], the Z-score amounted to 0.09783.

Turning to `COc1cc(NS(=O)(=O)c2ccc(N)cc2)nc(OC)n1` [Sulfadimethoxine], the Z-score is given as 0.4077.

For `COc1ncnc(NS(=O)(=O)c2ccc(N)cc2)c1OC` [Sulfadoxine], the Z-score is −0.1202.

Take `[H]/N=C(/N)NS(=O)(=O)c1ccc(N)cc1` [Sulfaguanidine]: the Z-score came to 1.05.

With `Cc1ccnc(NS(=O)(=O)c2ccc(N)cc2)n1` [Sulfamerazine], the Z-score is on record as −0.0984.

On to `COc1cnc(NS(=O)(=O)c2ccc(N)cc2)nc1` [Sulfameter], for which the Z-score was −0.1501.

`Cc1cc(C)nc(NS(=O)(=O)c2ccc(N)cc2)n1` [Sulfamethazine sodium salt]: the Z-score was determined as 1.431.

The molecule `Cc1nnc(NS(=O)(=O)c2ccc(N)cc2)s1` [Sulfamethizole] yielded a Z-score of −0.7734.

As for `Cc1cc(NS(=O)(=O)c2ccc(N)cc2)no1` [Sulfamethoxazole], the Z-score is −0.4061.

As to `COc1ccc(NS(=O)(=O)c2ccc(N)cc2)nn1` [Sulfamethoxypyridazine], the Z-score is −0.0234.

In the case of `COc1cc(NS(=O)(=O)c2ccc(N)cc2)ncn1` [Sulfamonomethoxine], the Z-score is recorded as −1.3171.

Take `Nc1ccc(S(N)(=O)=O)cc1` [Sulfanilamide]: the Z-score turned out to be 0.2959.

As to `Nc1ccc(S(=O)(=O)Nc2ccnn2-c2ccccc2)cc1` [Sulfaphenazole], the Z-score is −0.2854.

The molecule `Nc1ccc(S(=O)(=O)Nc2ccccn2)cc1` [Sulfapyridine] registered a Z-score of 0.5256.

Turning to `Nc1ccc(S(=O)(=O)Nc2cnc3ccccc3n2)cc1` [Sulfaquinoxaline sodium salt], the Z-score is 0.579.

Consider `O=C(O)c1cc(/N=N/c2ccc(S(=O)(=O)Nc3ccccn3)cc2)ccc1O` [Sulfasalazine], for which the Z-score is reported as −1.0569.

`Nc1ccc(S(=O)(=O)Nc2nccs2)cc1` [Sulfathiazole] had a Z-score of 0.1226.

Turning to `O=C1C(CC[S+]([O-])c2ccccc2)C(=O)N(c2ccccc2)N1c1ccccc1` (centres unmarked) [Sulfinpyrazone], the Z-score is on record as −1.4016.

`Cc1noc(NS(=O)(=O)c2ccc(N)cc2)c1C` [Sulfisoxazole]: the Z-score is −0.0512.

Molecule `CC1=C(CC(=O)O)c2cc(F)ccc2/C1=C\c1ccc([S+](C)[O-])cc1` (centres unmarked) [Sulindac] yielded a Z-score of 1.451.

`COc1cc([S+](C)[O-])ccc1-c1nc2ncccc2[nH]1` (centres unmarked) [Sulmazole] had a Z-score of 0.4097.

`CCCCCCCCNC(C)C(O)c1ccc(SC(C)C)cc1` (centres unmarked) [Suloctidil] returned a Z-score of 21.8147.

The molecule `CCN1CCCC1CNC(=O)c1cc(S(N)(=O)=O)ccc1OC` (centres unmarked) [Sulpiride] displayed a Z-score of −0.2187.

`CC(C(=O)O)c1ccc(C(=O)c2cccs2)cc1` (centres unmarked) [Suprofen] gave a Z-score of −0.7501.

Molecule `CCCCC1(COC(=O)CCC(=O)O)C(=O)N(c2ccccc2)N(c2ccccc2)C1=O` [Suxibuzone] yielded a Z-score of −1.3282.

For `CCOC(=O)Oc1c(OC)cc(C(=O)O[C@@H]2C[C@@H]3CN4CCc5c([nH]c6cc(OC)ccc56)[C@H]4C[C@@H]3[C@H](C(=O)OC)[C@H]2OC)cc1OC` [Syrosingopine], the Z-score is on record as 0.3519.

In turn, `Cl.O=c1[nH]oc2c1CCNC2` [THIP Hydrochloride] returned a Z-score of −1.3776.

With `Nc1c2c(nc3ccccc13)CCCC2` [Tacrine hydrochloride hydrate], the Z-score was −2.143.

Consider `CC1(C)S[C@@H]2[C@H](NC(=O)[C@H](N)c3ccccc3)C(=O)N2[C@H]1C(=O)OC1OC(=O)c2ccccc21` (some centres unmarked) [Talampicillin hydrochloride], for which the Z-score is listed as −0.9508.

Consider `CC/C(=C(\c1ccccc1)c1ccc(OCCN(C)C)cc1)c1ccccc1` [Tamoxifen citrate], for which the “Rank in normalized ORO score from screen” value worked out at 130 and the Z-score was −1.1882.

`Cc1scc2c1N(C(=O)CN1CCN(C)CC1)c1ccccc1NC2=O` [Telenzepine dihydrochloride] displayed a Z-score of 0.2257.

Molecule `CN1C(C(=O)Nc2ccccn2)=C(O)c2sccc2S1(=O)=O` [Tenoxicam] yielded a Z-score of −0.5016.

`COc1cc2nc(N3CCN(C(=O)C4CCCO4)CC3)nc(N)c2cc1OC` (centres unmarked) [Terazosin hydrochloride] yielded a Z-score of −0.0723.

`CC(C)N1CCN(c2ccc(OCC3COC(Cn4cncn4)(c4ccc(Cl)cc4Cl)O3)cc2)CC1` (centres unmarked) [Terconazole] displayed a Z-score of −0.3786.

On to `CC(C)(C)c1ccc(C(O)CCCN2CCC(C(O)(c3ccccc3)c3ccccc3)CC2)cc1` (centres unmarked) [Terfenadine], for which the Z-score is on record as −0.8896.

`CCC(=O)O[C@H]1CC[C@H]2[C@@H]3CCC4=CC(=O)CC[C@]4(C)[C@H]3CC[C@]12C` [Testosterone propionate]: the “Rank in normalized ORO score from screen” value worked out at 857 and the Z-score is reported as 0.7489.

As to `CCCCNc1ccc(C(=O)OCCN(C)C)cc1.Cl` [TetracaOne hydrochloride], the Z-score was −0.5979.

On to `CN(C)[C@@H]1C(O)=C(C(N)=O)C(=O)[C@@]2(O)C(O)=C3C(=O)c4c(O)cccc4[C@@](C)(O)[C@H]3C[C@@H]12` [Tetracycline hydrochloride], for which the Z-score was −0.2579.

Molecule `O.O=C1C(O)=C(O)C(=O)C(O)=C1O` [Tetrahydroxy-1,4-quinone monohydrate] displayed a Z-score of −1.5885.

As for `c1ccc2c(c1)CCCC2C1=NCCN1` (centres unmarked) [Tetrahydrozoline hydrochloride], the Z-score is −0.9102.

As to `c1ccc(C2CN3CCSC3=N2)cc1` (centres unmarked) [Tetramisole hydrochloride], the Z-score came to 0.1333.

`COc1ccc2cc1Oc1ccc(cc1)C[C@H]1c3cc(c(OC)cc3CCN1C)Oc1c(OC)c(OC)cc3c1[C@H](C2)N(C)CC3` [Tetrandrine]: the Z-score is −1.1905.

For `O=C1CCC(N2C(=O)c3ccccc3C2=O)C(=O)N1` (centres unmarked) [Thalidomide], the Z-score is on record as −1.026.

The molecule `Cn1cnc2c1c(=O)[nH]c(=O)n2C` [Theobromine] registered a Z-score of 0.09359.

With `Cn1c(=O)c2[nH]cnc2n(C)c1=O.O` [Theophylline monohydrate], the Z-score amounted to 0.7001.

With `Cc1ncc(C[n+]2csc(CCO)c2C)c(N)n1` [Thiamine hydrochloride], the Z-score was found to be 1.576.

`CS(=O)(=O)c1ccc([C@@H](O)[C@@H](CO)NC(=O)C(Cl)Cl)cc1` [Thiamphenicol] displayed a Z-score of 16.8903.

The molecule `COc1c(O[C@@H]2O[C@H](CO)[C@@H](O)[C@H](O)[C@H]2O)cc2c(c1OC)-c1ccc(SC)c(=O)cc1[C@@H](NC(C)=O)CC2` [Thiocolchicoside] gave a Z-score of 11.5611.

The values are drawn from patent publication US9393221B2, “Methods and compounds for reducing intracellular lipid storage” (THE GENERAL HOSPITAL CORPORATION, priority 2011, dated 2016).
